In article PMC6096483, “Structural studies of the unusual metal-ion site of the GH124 endoglucanase from Ruminiclostridium thermocellum” (Acta Crystallographica. Section F, Structural Biology …, 2018):

Molecular target: T1, RtGH124 (GH124 endoglucanase GH124A) (Acetivibrio thermocellus, UniProt A3DCJ4)
T1 construct: gene Cthe_0435; GH124 catalytic domain without dockerin; E. coli BL21(DE3)pLysS; N-terminal His6-3C tag cleaved, leaving GPA before […]; ends ...DRSNPWEIYY; 25304 Da calculated; His264 partially 2-oxohistidine
T1 sequence (A3DCJ4 entry or part of it): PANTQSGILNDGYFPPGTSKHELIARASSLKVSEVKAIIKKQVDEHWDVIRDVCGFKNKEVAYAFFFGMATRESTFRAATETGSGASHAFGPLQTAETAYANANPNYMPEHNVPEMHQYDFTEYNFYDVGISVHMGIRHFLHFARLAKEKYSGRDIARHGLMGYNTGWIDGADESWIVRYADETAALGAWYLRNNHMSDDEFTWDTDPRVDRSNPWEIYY
Assay: X-ray crystallography (co-crystallization, […] A)
Format: binding
Conditions: active site, two cellotrioses on either side of catalytic Glu203; Mn2+ at distant metal site; Tacsimate pH 5.0; 6.7 mM ligand

With `OC[C@H]1O[C@@H](O[C@H]2[C@H](O)[C@@H](O)[C@H](O[C@H]3[C@H](O)[C@@H](O)C(O)O[C@@H]3CO)O[C@@H]2CO)[C@H](O)[C@@H](O)[C@@H]1O` (stereo partly shown) [G3, cellotriose] as the molecule, how does the “X-ray crystallography (co-crystallization, 1.03 A)” value read?
The value was “Structures of RtGH124 co-crystallized with cellotriose (G3) showed an active site with two cellotrioses”.
